According to ChEMBL document CHEMBL1146891, “Preparation of 1-(3-aminobenzo[d]isoxazol-5-yl)-1H-pyrazolo[4,3-d]pyrimidin-7(6H)-ones as potent, selective, and efficacious inhibitors of coagulation factor Xa” (Bioorg Med Chem Lett, 2006):
Values belong to the compound of their own block, whether it stands above or below them.

What was measured:
Coagulation factor X [1] = molecular target: T1, Coagulation factor X (Homo sapiens, UniProt P00742); assay: Binding affinity to human f10a
Prothrombin = Prothrombin (Homo sapiens, UniProt P00734); assay: Binding affinity to human thrombin
Trypsin = Trypsin (Homo sapiens, UniProt P07477+P07478+P35030); assay: Binding affinity to human trypsin; assay type: protein assay
[2] = molecular target: Vitamin K-dependent protein C (Homo sapiens, UniProt P04070); assay: Binding affinity to human activated protein C
Sequence of Vitamin K-dependent protein C (P04070 43-197 limits assumed): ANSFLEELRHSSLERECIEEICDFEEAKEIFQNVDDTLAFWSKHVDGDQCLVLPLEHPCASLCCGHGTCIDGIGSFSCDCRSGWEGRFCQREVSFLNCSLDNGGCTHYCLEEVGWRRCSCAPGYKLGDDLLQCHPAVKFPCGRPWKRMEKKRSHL
Sequence of Vitamin K-dependent protein C (P04070 212-461 limits assumed): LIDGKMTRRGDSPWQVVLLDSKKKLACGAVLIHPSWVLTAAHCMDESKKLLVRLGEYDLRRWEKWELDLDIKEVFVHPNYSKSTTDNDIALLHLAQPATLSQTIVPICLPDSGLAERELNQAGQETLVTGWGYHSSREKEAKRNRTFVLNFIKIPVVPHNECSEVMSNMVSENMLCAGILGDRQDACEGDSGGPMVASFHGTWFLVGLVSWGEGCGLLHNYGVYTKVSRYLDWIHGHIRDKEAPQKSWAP

Coagulation factor IX = Coagulation factor IX (Homo sapiens, UniProt P00740); assay: Binding affinity to human f9a
Sequence of Coagulation factor IX (P00740 47-191 limits assumed): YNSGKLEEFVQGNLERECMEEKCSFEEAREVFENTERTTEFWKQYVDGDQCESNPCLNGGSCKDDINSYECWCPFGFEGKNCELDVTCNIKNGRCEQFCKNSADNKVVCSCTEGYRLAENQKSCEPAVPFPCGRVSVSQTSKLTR
Sequence of Coagulation factor IX (P00740 227-461 limits assumed): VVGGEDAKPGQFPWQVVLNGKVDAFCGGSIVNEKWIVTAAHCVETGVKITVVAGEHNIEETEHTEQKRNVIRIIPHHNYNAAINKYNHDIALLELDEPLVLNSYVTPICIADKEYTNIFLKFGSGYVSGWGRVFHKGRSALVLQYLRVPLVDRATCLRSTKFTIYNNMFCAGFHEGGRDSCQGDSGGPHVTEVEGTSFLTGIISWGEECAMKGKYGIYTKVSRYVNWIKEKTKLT

Plasminogen = Plasminogen (Homo sapiens, UniProt P00747); assay: Binding affinity to human plasmin
Sequence of Plasminogen (P00747 97-580 limits assumed): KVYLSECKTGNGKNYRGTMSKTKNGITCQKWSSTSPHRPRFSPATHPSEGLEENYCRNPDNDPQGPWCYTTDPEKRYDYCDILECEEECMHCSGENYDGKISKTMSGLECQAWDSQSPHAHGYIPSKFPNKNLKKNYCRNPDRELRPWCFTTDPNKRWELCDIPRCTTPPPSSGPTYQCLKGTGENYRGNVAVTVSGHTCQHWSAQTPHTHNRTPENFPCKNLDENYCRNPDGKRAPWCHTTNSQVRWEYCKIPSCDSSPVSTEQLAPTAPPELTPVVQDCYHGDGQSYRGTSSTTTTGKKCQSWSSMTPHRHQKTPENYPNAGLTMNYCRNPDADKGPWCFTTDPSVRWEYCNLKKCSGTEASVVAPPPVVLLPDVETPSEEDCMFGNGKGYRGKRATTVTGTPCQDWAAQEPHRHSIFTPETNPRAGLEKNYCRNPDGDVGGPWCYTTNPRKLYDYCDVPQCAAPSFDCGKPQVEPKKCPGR
Sequence of Plasminogen (P00747 581-810 limits assumed): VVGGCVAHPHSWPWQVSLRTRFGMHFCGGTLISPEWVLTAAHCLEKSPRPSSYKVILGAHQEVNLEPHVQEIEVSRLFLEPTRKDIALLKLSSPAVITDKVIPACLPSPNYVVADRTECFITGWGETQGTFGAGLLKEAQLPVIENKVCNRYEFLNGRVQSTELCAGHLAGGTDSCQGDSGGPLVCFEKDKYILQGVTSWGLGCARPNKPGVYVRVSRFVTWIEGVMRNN

[3] = molecular target: Tissue-type plasminogen activator (Homo sapiens, UniProt P00750); assay: Binding affinity to human tPA
Sequence of Tissue-type plasminogen activator (P00750 whole entry): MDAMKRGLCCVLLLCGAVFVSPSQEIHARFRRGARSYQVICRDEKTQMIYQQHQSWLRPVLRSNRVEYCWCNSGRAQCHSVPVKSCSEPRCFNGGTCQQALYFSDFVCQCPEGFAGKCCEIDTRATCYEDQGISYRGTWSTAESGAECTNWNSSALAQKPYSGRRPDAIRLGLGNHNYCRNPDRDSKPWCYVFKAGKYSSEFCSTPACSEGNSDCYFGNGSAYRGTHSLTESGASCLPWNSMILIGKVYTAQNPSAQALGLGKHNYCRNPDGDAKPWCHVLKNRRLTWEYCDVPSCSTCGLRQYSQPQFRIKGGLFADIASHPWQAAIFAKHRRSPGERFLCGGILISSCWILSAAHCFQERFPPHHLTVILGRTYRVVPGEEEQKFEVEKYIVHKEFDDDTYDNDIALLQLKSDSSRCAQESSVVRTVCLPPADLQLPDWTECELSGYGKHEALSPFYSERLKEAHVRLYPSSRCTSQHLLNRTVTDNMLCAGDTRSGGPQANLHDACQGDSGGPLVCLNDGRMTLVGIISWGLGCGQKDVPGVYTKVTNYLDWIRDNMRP

[4] = molecular target: Urokinase-type plasminogen activator (Homo sapiens, UniProt P00749); assay: Binding affinity to human urokinase
Chymotrypsinogen B = Chymotrypsinogen B (Homo sapiens, UniProt P17538); assay: Binding affinity to human chymotrypsin
Sequence of Chymotrypsinogen B (P17538 34-164 limits assumed, other chains not shown): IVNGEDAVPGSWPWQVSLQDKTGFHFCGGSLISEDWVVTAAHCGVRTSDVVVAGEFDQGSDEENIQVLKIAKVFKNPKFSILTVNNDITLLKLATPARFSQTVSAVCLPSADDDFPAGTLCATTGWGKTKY
Sequence of Chymotrypsinogen B (P17538 167-263 limits assumed, other chains not shown): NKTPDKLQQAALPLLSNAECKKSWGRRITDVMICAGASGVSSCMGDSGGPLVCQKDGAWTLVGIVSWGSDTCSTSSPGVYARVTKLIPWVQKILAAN

Coagulation factor X [5] = molecular target: T2, Coagulation factor X (Oryctolagus cuniculus, UniProt O19045); assay: Binding affinity to rabbit f10a
T2 sequence (O19045 whole entry): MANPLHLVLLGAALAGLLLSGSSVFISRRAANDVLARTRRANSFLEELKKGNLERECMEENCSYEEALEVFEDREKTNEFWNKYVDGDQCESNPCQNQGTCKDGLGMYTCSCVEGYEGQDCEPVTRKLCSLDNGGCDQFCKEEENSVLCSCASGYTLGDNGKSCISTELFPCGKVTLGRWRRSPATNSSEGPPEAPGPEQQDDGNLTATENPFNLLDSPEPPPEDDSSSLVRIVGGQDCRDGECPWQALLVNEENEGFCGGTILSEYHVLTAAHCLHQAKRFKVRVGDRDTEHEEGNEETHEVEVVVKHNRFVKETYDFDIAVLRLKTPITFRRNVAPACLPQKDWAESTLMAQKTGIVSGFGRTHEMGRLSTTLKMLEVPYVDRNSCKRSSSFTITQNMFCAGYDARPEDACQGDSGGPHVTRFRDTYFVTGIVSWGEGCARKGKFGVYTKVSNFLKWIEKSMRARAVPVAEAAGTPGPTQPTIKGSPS

Oryctolagus cuniculus = assay: Inhibition of thrombus formation in iv dosed rabbit arterio-venous shunt model; assay type: functional, organism-based
[6] = Protein binding in rabbit plasma; assay type: ADME, organism-based, Oryctolagus cuniculus; details: read-out: PPB (converted)
Coagulation factor X [7] = molecular target: T1, Coagulation factor X; assay: Anticoagulant activity in human plasma measured as activated partial thromboplastin time; assay type: functional, cell-free
[8] = molecular target: T3, Coagulation factor VII/tissue factor (Homo sapiens) (UniProt P08709+P13726); assay: Anticoagulant activity in human plasma measured as prothrombin time; assay type: functional, cell-free
[9] = molecular target: T3, Coagulation factor VII/tissue factor (Homo sapiens); assay: Anticoagulant activity in rabbit plasma measured as prothrombin time; assay type: functional, cell-free; details: Oryctolagus cuniculus, target entry is the homologue from another species
Homo sapiens [10] = organism: Homo sapiens; assay: Selectivity for f10a over chymotrypsin
[11] = molecular target: Thrombin and coagulation factor X (Homo sapiens) (UniProt P00734+P00742); assay: Selectivity for f10a over thrombin; assay type: protein assay
Sequence of Thrombin and coagulation factor X (Homo sapiens) (P00742 whole entry, looked up, other chains not shown): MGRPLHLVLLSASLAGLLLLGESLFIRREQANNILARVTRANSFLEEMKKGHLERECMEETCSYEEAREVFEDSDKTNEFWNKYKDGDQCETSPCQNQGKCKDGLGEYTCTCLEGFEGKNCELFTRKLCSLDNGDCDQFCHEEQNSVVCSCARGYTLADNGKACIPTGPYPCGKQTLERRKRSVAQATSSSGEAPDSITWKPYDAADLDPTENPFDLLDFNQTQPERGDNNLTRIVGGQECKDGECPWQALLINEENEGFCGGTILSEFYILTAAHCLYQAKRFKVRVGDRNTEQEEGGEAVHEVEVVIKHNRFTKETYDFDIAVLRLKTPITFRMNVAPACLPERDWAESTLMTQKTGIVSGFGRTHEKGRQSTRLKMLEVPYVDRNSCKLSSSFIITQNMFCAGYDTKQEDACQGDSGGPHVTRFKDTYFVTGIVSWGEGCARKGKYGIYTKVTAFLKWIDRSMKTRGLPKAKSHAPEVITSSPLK

Homo sapiens [12] = organism: Homo sapiens; assay: Selectivity for f10a over trypsin
Homo sapiens [13] = organism: Homo sapiens; assay: Selectivity for f10a over activated protein C
[14] = molecular target: Coagulation factor VII and X (Homo sapiens) (UniProt P00742+P08709); assay: Selectivity for f10a over f7a; assay type: protein assay
Homo sapiens [15] = organism: Homo sapiens; assay: Selectivity for f10a over plasmin
Homo sapiens [16] = organism: Homo sapiens; assay: Selectivity for f10a over tPA
[17] = molecular target: Coagulation factor X and plasma kallikrein (Homo sapiens) (UniProt P03952+P00742); assay: Selectivity for f10a over plasma kallikrein; assay type: cell-free
Sequence of Coagulation factor X and plasma kallikrein (Homo sapiens) (P00742 whole entry, looked up): as the sequence (P00742 whole entry, looked up, other chains not shown) above
Sequence of Coagulation factor X and plasma kallikrein (Homo sapiens) (P03952 whole entry, looked up): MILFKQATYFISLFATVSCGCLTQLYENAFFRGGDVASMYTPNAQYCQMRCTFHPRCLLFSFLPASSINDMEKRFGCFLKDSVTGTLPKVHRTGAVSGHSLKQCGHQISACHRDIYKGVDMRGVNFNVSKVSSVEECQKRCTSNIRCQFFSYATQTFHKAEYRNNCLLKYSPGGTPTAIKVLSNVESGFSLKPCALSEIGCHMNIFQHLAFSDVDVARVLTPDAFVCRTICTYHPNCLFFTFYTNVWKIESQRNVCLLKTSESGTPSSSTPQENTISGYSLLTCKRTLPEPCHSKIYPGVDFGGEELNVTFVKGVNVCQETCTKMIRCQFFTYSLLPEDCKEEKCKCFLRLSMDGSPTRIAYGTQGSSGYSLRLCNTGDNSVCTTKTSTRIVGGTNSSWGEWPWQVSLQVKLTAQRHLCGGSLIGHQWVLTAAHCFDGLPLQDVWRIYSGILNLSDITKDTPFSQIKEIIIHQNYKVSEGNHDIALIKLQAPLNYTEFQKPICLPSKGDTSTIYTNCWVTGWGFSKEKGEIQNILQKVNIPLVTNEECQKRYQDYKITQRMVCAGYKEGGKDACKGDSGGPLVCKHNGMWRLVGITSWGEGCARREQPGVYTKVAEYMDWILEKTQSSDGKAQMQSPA

Homo sapiens [18] = organism: Homo sapiens; assay: Selectivity for f10a over urokinase
[19] = Stability at pH 1.0; assay type: physicochemical; details: buffer
[20] = Stability at pH 4.0; assay type: physicochemical; details: buffer
[21] = Clearance in dog at 0.5 mg/kg, iv and 0.2 mg/kg, po; assay type: ADME, organism-based, Canis lupus familiaris; details: in vivo
[22] = Volume of distribution in dog at 0.5 mg/kg, iv and 0.2 mg/kg, po; assay type: ADME, organism-based, Canis lupus familiaris; details: in vivo, read-out: Vdss
[23] = Half life in dog at 0.5 mg/kg, iv and 0.2 mg/kg, po; assay type: ADME, organism-based, Canis lupus familiaris; details: in vivo
[24] = Bioavailability in dog at 0.5 mg/kg, iv and 0.2 mg/kg, po; assay type: ADME, organism-based, Canis lupus familiaris; details: in vivo
[25] = Apparent permeability in Caco-2 cells; assay type: ADME, cell-based; details: human

T1 sequence (P00742 41-179 limits assumed): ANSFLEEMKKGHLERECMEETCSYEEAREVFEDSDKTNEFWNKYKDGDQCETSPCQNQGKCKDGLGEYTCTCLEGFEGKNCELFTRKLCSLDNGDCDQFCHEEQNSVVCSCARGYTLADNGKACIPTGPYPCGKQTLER
T1 sequence (P00742 235-488 limits assumed): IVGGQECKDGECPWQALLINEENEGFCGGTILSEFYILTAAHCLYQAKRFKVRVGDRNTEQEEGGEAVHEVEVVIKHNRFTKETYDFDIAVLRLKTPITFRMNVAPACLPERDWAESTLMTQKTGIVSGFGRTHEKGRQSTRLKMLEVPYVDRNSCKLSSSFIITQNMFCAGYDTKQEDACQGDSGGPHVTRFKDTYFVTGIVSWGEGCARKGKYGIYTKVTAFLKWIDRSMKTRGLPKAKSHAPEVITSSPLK

SMILES: Cc1nn(-c2ccc3onc(N)c3c2)c2c(=O)n(-c3ccc(-c4ccccc4CN(C)C)cc3)c(C)nc12
- 2aPTT (Coagulation factor X [7]): 1.7 µM
- 2PT [8]: 1.4 µM
- 2PT [9]: 1.8 µM
- Ratio Ki (Homo sapiens [10]): > 1000
- Ratio Ki [11]: > 500
- Ratio Ki (Homo sapiens [12]): > 1000
- Ratio Ki (Homo sapiens [13]): > 1000
- Ratio Ki [14]: > 1000
- Ratio Ki (Homo sapiens [15]): > 1000
- Ratio Ki (Homo sapiens [16]): > 1000
- Ratio Ki [17]: > 1000
- Ratio Ki (Homo sapiens [18]): > 1000

SMILES: Cc1nn(-c2ccc3onc(N)c3c2)c2c(=O)n(-c3ccc(-c4ccccc4CN(C)C(C)C)cc3)c(C)nc12
- Ki (Coagulation factor X [1]): 0.35 nM
- 2aPTT (Coagulation factor X [7]): 2 µM
- 2PT [8]: 4 µM

SMILES: CN(C)Cc1ccccc1-c1ccc(-n2cnc3c(C(F)(F)F)nn(-c4ccc5onc(N)c5c4)c3c2=O)cc1
- Ki (Coagulation factor X [1]): 0.35 nM
- 2aPTT (Coagulation factor X [7]): 3.7 µM
- 2PT [8]: 2.6 µM
- Stability [19]: 83.2%
- Stability [20]: 72.3%

SMILES: Cc1nc2c(C(F)(F)F)nn(-c3ccc4onc(N)c4c3)c2c(=O)n1-c1ccc(-c2ccccc2CN(C)C)cc1 [listing 1 of 2 here]
- 2aPTT (Coagulation factor X [7]): 9.2 µM
- 2PT [8]: 4.1 µM
- 2PT [9]: 2.7 µM

SMILES: CCOC(=O)c1nn(-c2ccc3onc(N)c3c2)c2c(=O)n(-c3ccc(-c4ccccc4CN4CCCC4)cc3)cnc12
- Ki (Coagulation factor X [1]): 1.6 nM
- 2aPTT (Coagulation factor X [7]): 1.6 µM
- 2PT [8]: 2.3 µM

SMILES: CN(C)Cc1ccccc1-c1ccc(-c2cnc3c(C(F)(F)F)nn(-c4ccc5onc(N)c5c4)c3c2O)cc1
- Ki (Coagulation factor X [1]): 3.2 nM

SMILES: Cc1nn(-c2ccc3onc(N)c3c2)c2c(=O)n(-c3ccc(-c4ccccc4CN(C)C)cc3)cnc12
- Ki (Coagulation factor X [1]): 0.53 nM
- Stability [19]: 97.2%
- Stability [20]: 90.1%

SMILES: Cc1nc2c(C(F)(F)F)nn(-c3ccc4onc(N)c4c3)c2c(=O)n1-c1ccc(-c2ccccc2CN(C)C)cc1 [listing 2 of 2 here]
- Ki (Prothrombin): 130 nM
- Ki (Trypsin): > 4200 nM
- Ki [2]: > 37000 nM
- Ki (Coagulation factor IX): 37000 nM
- Ki (Plasminogen): > 25000 nM
- Ki [3]: > 40000 nM
- Ki [4]: > 40000 nM
- Ki (Chymotrypsinogen B): > 11000 nM
- Ki (Coagulation factor X [5]): 0.2 nM
- ID50 (Oryctolagus cuniculus): 1.9 µmol/kg/h
- IC50 (Oryctolagus cuniculus; Oryctolagus cuniculus): 290 nM
- fraction unbound [6]: 0.03

Further lines, with some results ahead:

- Ki (Coagulation factor X [1]): 0.37 nM
- Ki (Prothrombin): 245 nM
- Ki (Trypsin): > 4200 nM
- Ki [2]: > 76000 nM
- Ki (Coagulation factor IX): > 41000 nM
- Ki (Plasminogen): > 15000 nM
- Ki [3]: > 33000 nM
- Ki [4]: > 13000 nM
- Ki (Chymotrypsinogen B): 580 nM
- Ki (Coagulation factor X [5]): 0.59 nM
- fraction unbound [6]: 0.09
SMILES: Cc1nn(-c2ccc3onc(N)c3c2)c2c(=O)n(-c3ccc(-c4ccccc4CN4CC[C@@H](O)C4)cc3)c(C)nc12
- ID50 (Oryctolagus cuniculus): 2.4 µmol/kg/h

- clearance [21]: 16.3 mL/min/kg
- Vd [22]: 4.2 L/kg
- half-life [23]: 4.3 h
- bioavailability [24]: 27%
- Papp [25]: 3.9 ×10⁻⁶ cm/s
SMILES: Nc1noc2ccc(-n3nc(C(F)(F)F)c4c3C(=O)N(c3ccc(-c5ccccc5CN5CC[C@@H](O)C5)cc3)CN4)cc12.O=C(O)C(F)(F)F

- clearance [21]: 10 mL/min/kg
- Vd [22]: 6.6 L/kg
- half-life [23]: 8.4 h
- bioavailability [24]: 58%
SMILES: Cc1nc2c(C(F)(F)F)nn(-c3ccc4onc(N)c4c3)c2c(=O)n1-c1ccc(-c2ccccc2CN2CC[C@@H](O)C2)cc1.O=C(O)C(F)(F)F

- clearance [21]: 55 mL/min/kg
- Vd [22]: 9.5 L/kg
- half-life [23]: 2.5 h
- bioavailability [24]: 2%
- Papp [25]: 11 ×10⁻⁶ cm/s
SMILES: Cc1nn(-c2ccc3onc(N)c3c2)c2c(=O)n(-c3ccc(-c4ccccc4CN(C)C)cc3)cnc12.O=C(O)C(F)(F)F

- Ki (Coagulation factor X [1]): 0.21 nM
- Ki (Prothrombin): 130 nM
- Ki (Trypsin): > 4200 nM
- Ki [2]: > 20000 nM
- Ki (Coagulation factor IX): > 41000 nM
- Ki (Plasminogen): > 15000 nM
- Ki [3]: > 33000 nM
- Ki [4]: > 13000 nM
- Ki (Chymotrypsinogen B): 3240 nM
SMILES: Nc1noc2ccc(-n3nc(C(F)(F)F)c4c3C(=O)N(c3ccc(-c5ccccc5CN5CC[C@@H](O)C5)cc3)CN4)cc12

- Ki (Coagulation factor X [1]): 0.77 nM
- 2aPTT (Coagulation factor X [7]): 638 µM
- 2PT [8]: 230 µM
SMILES: Nc1nc2c(C(F)(F)F)nn(-c3ccc4onc(N)c4c3)c2c(O)c1-c1ccc(-c2ccccc2CN2CCC(O)CC2)cc1

- 2aPTT (Coagulation factor X [7]): 28 µM
- 2PT [8]: 6.6 µM
SMILES: Cc1nc2c(C(F)(F)F)nn(-c3ccc4onc(N)c4c3)c2c(=O)n1-c1ccc(-c2ccccc2CN2CC[C@@H](O)C2)cc1

- Ki (Coagulation factor X [1]): 0.11 nM
- 2aPTT (Coagulation factor X [7]): 74.5 µM
- 2PT [8]: 24.1 µM
SMILES: Nc1noc2ccc(-n3nc(C(F)(F)F)c4[nH]c(=O)n(-c5ccc(-c6ccccc6CN6CC[C@@H](O)C6)cc5)c(=O)c43)cc12

- clearance [21]: 11.7 mL/min/kg
- Vd [22]: 13 L/kg
- half-life [23]: 14 h
- bioavailability [24]: 63%
- Papp [25]: 19 ×10⁻⁶ cm/s
SMILES: Cc1nc2c(C(F)(F)F)nn(-c3ccc4onc(N)c4c3)c2c(=O)n1-c1ccc(-c2ccccc2CN(C)C)cc1.O=C(O)C(F)(F)F
